Results from patent US11578061B2, “Inhibitors of LRRK2 kinase” (Halia Therapeutics, Inc., priority 2021, dated 2023).

Molecular target: recombinant human LRRK2 (catalytic domain only [amino acids 970-2527], GST-tagged) (Homo sapiens (Human), UniProt Q5S007)
Assay: LRRK2 Enzymatic Assay
Type: biochemical
Conditions: LRRKtide substrate, [32P]-ATP
In short: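 Radiometric P81 filter-binding read-out of [32P]-ATP transfer to LRRKtide (20 μM) by 30 nM GST-LRRK2 970-2527, 2 h at room temperature after 20 min compound preincubation (10 μM–0.5 nM, 1% DMSO). IC50 derived from % remaining activity versus DMSO.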

Chain of recombinant human LRRK2 (catalytic domain only [amino acids 970-2527], GST-tagged) (Q5S007 970-2527): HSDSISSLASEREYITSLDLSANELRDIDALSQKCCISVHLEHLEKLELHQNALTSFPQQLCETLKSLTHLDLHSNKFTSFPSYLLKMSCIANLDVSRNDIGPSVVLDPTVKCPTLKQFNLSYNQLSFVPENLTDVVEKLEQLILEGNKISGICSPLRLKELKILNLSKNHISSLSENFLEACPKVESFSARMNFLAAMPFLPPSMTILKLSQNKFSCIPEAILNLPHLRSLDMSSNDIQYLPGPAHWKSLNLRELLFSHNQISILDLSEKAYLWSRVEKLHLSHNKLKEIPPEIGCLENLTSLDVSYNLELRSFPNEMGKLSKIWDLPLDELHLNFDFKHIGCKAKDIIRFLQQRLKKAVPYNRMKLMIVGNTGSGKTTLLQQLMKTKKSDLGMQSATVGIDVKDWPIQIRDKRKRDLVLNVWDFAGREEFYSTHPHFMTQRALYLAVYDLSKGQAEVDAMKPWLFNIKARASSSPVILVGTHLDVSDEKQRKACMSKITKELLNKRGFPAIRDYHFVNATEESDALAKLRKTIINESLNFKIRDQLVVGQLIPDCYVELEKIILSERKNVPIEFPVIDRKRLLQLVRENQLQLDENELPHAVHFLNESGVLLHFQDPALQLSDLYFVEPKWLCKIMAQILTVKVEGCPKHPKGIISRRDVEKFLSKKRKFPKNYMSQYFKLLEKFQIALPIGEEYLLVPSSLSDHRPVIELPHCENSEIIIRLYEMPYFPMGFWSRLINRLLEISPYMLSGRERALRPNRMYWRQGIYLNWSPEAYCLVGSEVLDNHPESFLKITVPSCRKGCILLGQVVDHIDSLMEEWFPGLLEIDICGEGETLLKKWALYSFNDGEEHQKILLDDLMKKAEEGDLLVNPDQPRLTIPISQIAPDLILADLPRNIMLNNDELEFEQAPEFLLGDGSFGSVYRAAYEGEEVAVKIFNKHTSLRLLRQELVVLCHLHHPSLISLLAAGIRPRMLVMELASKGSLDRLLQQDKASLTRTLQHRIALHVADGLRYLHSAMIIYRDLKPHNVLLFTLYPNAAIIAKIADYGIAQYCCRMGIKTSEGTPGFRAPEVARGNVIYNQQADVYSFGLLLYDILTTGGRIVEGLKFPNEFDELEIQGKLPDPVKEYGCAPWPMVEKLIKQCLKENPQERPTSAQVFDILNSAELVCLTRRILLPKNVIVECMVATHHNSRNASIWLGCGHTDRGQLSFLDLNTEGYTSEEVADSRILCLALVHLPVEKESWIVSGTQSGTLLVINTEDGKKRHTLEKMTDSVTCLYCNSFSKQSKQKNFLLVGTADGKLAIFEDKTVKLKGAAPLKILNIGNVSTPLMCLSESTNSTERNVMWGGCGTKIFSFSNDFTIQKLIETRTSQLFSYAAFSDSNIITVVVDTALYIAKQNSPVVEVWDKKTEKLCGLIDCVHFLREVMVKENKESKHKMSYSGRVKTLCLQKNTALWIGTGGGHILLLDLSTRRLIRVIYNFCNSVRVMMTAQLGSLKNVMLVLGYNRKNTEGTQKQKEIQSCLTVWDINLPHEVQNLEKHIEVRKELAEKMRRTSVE

| SMILES | IC50 |
| --- | --- |
| Cc1nn(C(C)(C)C#N)cc1Nc1ncc(F)c(OCC2CCC(F)(F)CC2)n1 [Example 270, 2-(4-((4-((4,4-difluorocyclohexyl)methoxy)-5-fluoropyrimidin-2-yl)amino)-3-methyl-1H-pyrazol-1-yl)-2-methylpropanenitrile] | 50 to 200 nM |
| C[C@@H]1CN(c2ccc(Nc3ncc(F)c(OCC4CCC(F)(F)C4)n3)cc2)C[C@H](C)O1 (stereo partly drawn) [Example 271, 4-((3,3-difluorocyclopentyl)methoxy)-N-(4-((2S,6R)-2,6-dimethylmorpholino)phenyl)-5-fluoropyrimidin-2-amine] | 50 to 200 nM |
| CCO[C@H]1CC[C@@H](COc2nc(Nc3ccc(N4CCOCC4)cc3)ncc2F)CC1 [Example 275, 4-(((1S,4S)-4-ethoxycyclohexyl)methoxy)-5-fluoro-N-(4-morpholinophenyl)pyrimidin-2-amine] | 50 to 200 nM |
| CCO[C@H]1CC[C@@H](COc2nc(Nc3ccc(N4C[C@@H](C)O[C@@H](C)C4)cc3)ncc2F)CC1 [Example 276, N-(4-((2S,6R)-2,6-dimethylmorpholino)phenyl)-4-(((1S,4S)-4-ethoxycyclohexyl)methoxy)-5-fluoropyrimidin-2-amine] | 50 to 200 nM |
| CCO[C@H]1CC[C@@H](COc2nc(Nc3cn(C(C)(C)C#N)nc3C)ncc2F)CC1 [Example 277, 2-(4-((4-(((1s,4s)-4-ethoxycyclohexyl)methoxy)-5-fluoropyrimidin-2-yl)amino)-3-methyl-1H-pyrazol-1-yl)-2-methylpropanenitrile] | < 50 nM |
| C[C@@H]1CN(c2ccc(Nc3ncc(F)c(OCC4CCC(OC(F)(F)F)CC4)n3)cc2)C[C@H](C)O1 (stereo partly drawn) [Example 283, N-(4-((2S,6R)-2,6-dimethylmorpholino)phenyl)-5-fluoro-4-((4-(trifluoromethoxy)cyclohexyl)methoxy)pyrimidin-2-amine] | > 400 nM |
| C[C@@H]1CN(c2ccc(Nc3ncc(F)c(OC[C@H]4CC[C@H](OC(F)F)CC4)n3)cc2)C[C@H](C)O1 [Example 285, 4-(((1R,4R)-4-(difluoromethoxy)cyclohexyl)methoxy)-N-(4-((2S,6R)-2,6-dimethylmorpholino)phenyl)-5-fluoropyrimidin-2-amine] | 200 to 400 nM |
| Cc1nn(C(C)(C)C#N)cc1Nc1ncc(F)c(OC[C@H]2CC[C@H](OC(F)F)CC2)n1 [Example 286, 2-(4-((4-(((1R,4R)-4-(difluoromethoxy)cyclohexyl)methoxy)-5-fluoropyrimidin-2-yl)amino)-3-methyl-1H-pyrazol-1-yl)-2-methylpropanenitrile] | 50 to 200 nM |
| O=S1(=O)CCC(COc2nc(Nc3ccc(N4CCOCC4)cc3)ncc2F)CC1 [Example 287, 4-(((5-fluoro-2-((4-morpholinophenyl)amino)pyrimidin-4-yl)oxy)methyl)tetrahydro-2H-thiopyran 1,1-dioxide] | > 400 nM |
| C[C@@H]1CN(c2ccc(Nc3ncc(F)c(OCC4CCS(=O)(=O)CC4)n3)cc2)C[C@H](C)O1 [Example 288, 4-(((2-((4-((2R,6S)-2,6-dimethylmorpholino)phenyl)amino)-5-fluoropyrimidin-4-yl)oxy)methyl)tetrahydro-2H-thiopyran 1,1-dioxide] | > 400 nM |
| Cc1nn(C(C)(C)C#N)cc1Nc1ncc(F)c(OCC2CS(=O)(=O)C2)n1 [Example 289, 2-(4-((4-((1,1-dioxidothietan-3-yl)methoxy)-5-fluoropyrimidin-2-yl)amino)-3-methyl-1H-pyrazol-1-yl)-2-methylpropanenitrile] | > 400 nM |
